In one experiment the test system is MM074. The experiment can be described thus: Cell viability assay (PrestoBlue), 72h. Conditions: Homo sapiens.
Experiment [1] relates to IGR37. The experiment can be described thus: Cell viability assay (PrestoBlue), 72h, last line of Table 2. The note with it: Homo sapiens, IGR-37, 72 h.
Protocol: (§3) Cells were grown at 37°C in 5% CO2 (10% for Hermes 3A) and were regularly checked for mycoplasma contamination. […] Melanoma IGR cell lines (IGR37 and IGR39) were grown in RPMI w/o HEPES (Gibco, Invitrogen) supplemented with 15% FCS and gentamycin.
(§4) To determine the IC50 (half maximal inhibitory concentration) of these cells to various inhibitors, cell viability assays were performed.
(§5) After 72h of treatment with different concentrations of the compounds, cells were treated with PrestoBlue reagent according to the manufacturer's instructions. The absorbance per well was measured with a Cellinsight CX5 microplate reader. Data were analyzed using Prism9 statistical software.
The test system of a further experiment is MM011. Put plainly: Cell viability assay (PrestoBlue), 72h. The note with it: Homo sapiens.
In experiment [2] the test system is MM074 melanospheres. The experiment can be described thus: Melanosphere viability (CellTiterGlo). Format: cell-based, human. The note with it: 72h, doses equivalent to 5×IC50. Here is the method: (§1) MM074 proliferative/differentiated cell line were seeded (5×10^4 cells) in ultra-low attachment hydrogel-layered 96 well plates in KO DMEM medium supplemented with 20% KSR, AANE, 2 mM Glutamax, Penicillin/Streptomycin and 100 uM Beta-mercaptoethanol. To allow for melanosphere formation, cells were left to grow for 4 days before drug treatment.
To analyze melanosphere viability after drug treatment, cells were treated with CellTiterGlo reagent (Promega) according to the manufacturer's instructions. Luminescence signals were measured with a Centro XS LB 960 microplate reader (Berthold).
In general terms: Cellular ATP, detected with luciferase, serves as a proxy for viable cell number.

In another experiment the test system is 501mel. Put plainly: Cell viability assay (PrestoBlue), 72h. Conditions: Homo sapiens.
For a further experiment, the system named is MM029. Put plainly: Cell viability assay (PrestoBlue), 72h. Conditions: Homo sapiens.
The next experiment concerns SKMEL-28. Put plainly: Cell viability assay (PrestoBlue), 72h. The note with it: Homo sapiens, SK-MEL-28, 72 h.
For the next experiment, the system named is 501mel^VemuR. The experiment can be described thus: Cell viability assay (PrestoBlue), 72h. The note with it: Homo sapiens.
The next experiment concerns Hermes3A. Put plainly: Cell viability assay (PrestoBlue), 72h. The note with it: for pIC50: Homo sapiens, Melanocyte, 72 h.
The next experiment has as its system MM074^VemuR. The experiment can be described thus: Cell viability assay (PrestoBlue), 72h. Conditions: Homo sapiens.
The subject of experiment [3] is IGR37. The experiment can be described thus: Cell viability assay (PrestoBlue), 72h. The note with it: Homo sapiens, IGR-37, 72 h.
Protocol: (§6) Cells were grown at 37°C in 5% CO2 (10% for Hermes 3A) and were regularly checked for mycoplasma contamination. […] Melanoma cell lines 501mel and SKmel28 were grown in RPMI w/o HEPES (Gibco, Invitrogen) supplemented with 10% FCS and gentamycin. Vemurafenib-resistant cells (501melVemuR and MM074VemuR) were additionally supplemented with 1.5 µM of vemurafenib. Melanoma IGR cell lines (IGR37 and IGR39) were grown in RPMI w/o HEPES (Gibco, Invitrogen) supplemented with 15% FCS and gentamycin.
as §4, §5
The next experiment has as its system MM117. Put plainly: Cell viability assay (PrestoBlue), 72h. The note with it: Homo sapiens.
The test system of a further experiment is MM047. The experiment can be described thus: Cell viability assay (PrestoBlue), 72h. Conditions: Homo sapiens.
For a further experiment, the system named is MM099. Put plainly: Cell viability assay (PrestoBlue), 72h. Conditions: Homo sapiens.
For experiment [4], the system named is melanoma cells. The experiment can be described thus: Apoptosis by flow cytometry (AnnexinV-APC). Format: cell-based, human. Conditions: IC50 concentrations, Annexin V-APC. As to the method: (§2) After 48h of incubation, cells were rinsed and incubated with AnnexinV-APC (BD Biosciences). Cell proliferation and apoptosis were detected on a BD LSRFortessaTM Flow Cytometer. Data were analyzed with FlowJo software. To define slow proliferating or apoptotic cells: it was considered that slow proliferating cells represented the 30% of cells with the highest concentration of CellTrace Violet signal in the DMSO control. […] For apoptotic cells, it was considered the 20% of cells with the highest signal of AnnexinV-APC in the DMSO control.
Background: A flow cytometer gives signals particle by particle.

For experiment [5], the system named is RPB1 (RNA pol II elongation subunit). Put plainly: Immunoblotting of RPB1 in 501mel. Format: cell-based, human. The note with it: 24h at 5×IC50. As to the method:
Cells were washed once with cold PBS, rinsed with a cell scraper, pelleted and resuspended in LSDB 0.5M buffer (0.5M KCI, 50mM Tris HCl pH 7.9, 20% Glycerol, 1% NP40, 1mM DTT, PIC). Afterwards cells were fully disrupted with 3 cycles of heat shock in liquid nitrogen and 37°C water bath and centrifugated 15min at 14,000rpm to pellet cell debris. Ten micrograms of extract were loaded on SDS-PAGE before transfer to nitro-cellulose membranes and immunoblotting.

Experiment [6] relates to melanoma cells. Put plainly: Cell proliferation by CellTrace Violet flow cytometry. Format: cell-based, human. Conditions: IC50 concentrations, compared to DMSO. As to the method:
as §2

In experiment [7] the test system is MM074 melanospheres. Put plainly: Melanosphere apoptosis (AnnexinV-APC / propidium iodide). In kind it is cell-based, human. Conditions: 72h. Here is the method: as §1
For apoptosis assays with 3D-grown melanoma cells, TrypLe Select 10x reagent (Gibco) was used to dissociate melanospheres to obtain single-cell suspensions. These cells were incubated with AnnexinV-APC (Biolegend) and Propidium Iodide (PI, Biolegend). With bivariant dot plots, it was distinguished between viable (AnnexinV-/PI-), early apoptotic (AnnexinV+/PI-), late apoptotic (AnnexinV+/PI+) and necrotic cells (AnnexinV-/PI+).

For the next experiment, the system named is all melanoma cells. Put plainly: Cell viability assay (PrestoBlue), summary over all melanoma cells. The note with it: Homo sapiens, read-out: IC50 values. Format: cell-based.
Experiment [8] concerns melanoma cell cultures or cell lines. The experiment can be described thus: Clonogenic assay. The note with it: 48h at IC50 concentrations, then 10 days without drug. Format: cell-based, human. As to the method: Based on the cell viability assays conducted above, the efficacy of lurbinectedin, PM14 or Compound IA on melanoma cell proliferation was investigated. Initially, a clonogenic assay was performed. Cells were drug-treated at IC50 concentrations during 48h before seeding 1×10^3 or 2×10^3 cells in 6-well plates without drug, wherein they grew for 10 days to allow for colony formation. Afterwards, cells were fixed for 10min with 4% formaldehyde solution, washed once with PBS and stained with Crystal Violet solution 0.2% for 15 min. The wells were finally washed twice with deionized water, air dried, scanned and analyzed with Fiji software to count the number of colonies.

A further experiment has as its system melanoma cells 501mel. Put plainly: Cell cycle analysis by flow cytometry (PI). In kind it is cell-based, human. The note with it: IC50 concentrations. As to the method: For cell cycle analysis, 2×10^6 cells were seeded in 6 well plates. […] After 2 washes with cold PBS, cells were incubated with RNAse A and PI for 1h in the dark, before being analyzed on a BD LSRFortessaTM Flow Cytometer. Data were analysed with FlowJo software.

The results in this text go back to patent EP4563149A1, “LURBINECTEDIN, ECUBECTEDIN AND A RELATED COMPOUND FOR USE IN THE TREATMENT OF SKIN CANCERS” (Pharma Mar, S.A., priority 2023, dated 2025).

Structures are written as SMILES. pIC50: −log10 of the molar value.

Protocol for 501mel^VemuR: (§7) Cells were grown at 37°C in 5% CO2 (10% for Hermes 3A) and were regularly checked for mycoplasma contamination. MM patient-derived short-term melanoma cultures (MM011, MM074, MM117, MM029, MM047, MM099) were grown in HAM-F10 (Gibco, Invitrogen) supplemented with 10% Fetal Calf Serum (FCS), 25 mM HEPES, 5.2 mM GLUTAMAX and penicillin-streptomycin. Melanoma cell lines 501mel and SKmel28 were grown in RPMI w/o HEPES (Gibco, Invitrogen) supplemented with 10% FCS and gentamycin. Vemurafenib-resistant cells (501melVemuR and MM074VemuR) were additionally supplemented with 1.5 µM of vemurafenib. Melanoma IGR cell lines (IGR37 and IGR39) were grown in RPMI w/o HEPES (Gibco, Invitrogen) supplemented with 15% FCS and gentamycin.
as §4, §5
Protocol for Hermes3A: as §3, §4, §5
Protocol for MM011: as §6, §4, §5
Protocol for MM029: as §3, §4, §5
Protocol for MM047: as §3, §4, §5
Protocol for MM074^VemuR: as §7, §4, §5
Protocol for MM099: as §3, §4, §5
Protocol for MM117: as §6, §4, §5
Protocol for SKMEL-28: as §6, §4, §5

What is called pIC50 is the IC50 on a negative log10 scale, so that one unit is a factor of ten. For `CC(C)(C)c1nc(-c2cccc(NS(=O)(=O)c3c(F)cccc3F)c2F)c(-c2ccnc(N)n2)s1` [dabrafenib], the pIC50 is 8.33 in the experiment with MM074; below 7.30 in the experiment on IGR37 [1]; below 7.30 with MM011; below 7.30 in the experiment with 501mel; below 7.30 with MM029; 9.00 with SKMEL-28. The pIC50 in the experiment with 501mel^VemuR is below 7.30; in the experiment on Hermes3A, below 7.30; with MM074^VemuR, below 7.30; in the experiment with IGR37 [3], 7.60; in the experiment with MM117, below 7.30; in the experiment with MM047 it was below 7.30. Also, the negative-log IC50 (pIC50) in the experiment on MM099 was below 7.30. For the same molecule, in the experiment on MM074 melanospheres [2], the “cell viability in 3D culture” value is on record as “unable to reduce cell viability”.
Regarding `COc1ccc2[nH]c3c(c2c1)CCN[C@]31CS[C@@H]2c3c(OC(C)=O)c(C)c4c(c3[C@H](COC1=O)N1[C@@H]2[C@H]2c3c(cc(C)c(OC)c3O)C[C@@H]([C@@H]1O)N2C)OCO4` [lurbinectedin], the pIC50 was 8.97 in the experiment with MM074; 9.39 with IGR37 [1]; 9.33 in the experiment with MM011; 9.43 in the experiment with 501mel; 8.89 with MM029; 8.93 with SKMEL-28. Further, the negative logarithm of the IC50 (pIC50) was 8.97 in the experiment with 501mel^VemuR; 8.57 with Hermes3A; 8.87 in the experiment with MM074^VemuR; 8.33 to 9.52 in the experiment with all melanoma cells; 9.30 with IGR37 [3]; 9.52 with MM117. Further, the negative logarithm of the IC50 (pIC50) with MM047 is 9.35; with MM099, 9.14. In addition, the “cell viability in 3D culture” value in the experiment with MM074 melanospheres [2] is “significant cytotoxic effects”. In the experiment on Hermes3A (Hermes3A versus melanoma cells), the “sensitivity of non-cancerous Hermes3A immortalized melanocytes compared with the melanoma cells” value is “less sensitive”. Further, the apoptosis result in the experiment with melanoma cells [4] was “induction of apoptosis”. Also, the “RPB1 (RNA pol II elongation subunit) degradation” value in experiment [5] was “minimal”. Further, in the experiment with melanoma cells [6], the melanoma cell proliferation result was “significant inhibition”. Moreover, the “late apoptotic cells positive for Annexin V and propidium iodide” value in the experiment with MM074 melanospheres [7] is “substantial population of late apoptotic cells”. Also, the “colony formation (number of colonies)” value in experiment [8] is given as “significant impact”. Further, in the experiment with melanoma cells 501mel, the cell cycle progression entry is reported as “notable blockade”.
`CC(=O)Nc1cccc(-n2c(=O)n(C3CC3)c(=O)c3c(Nc4ccc(I)cc4F)n(C)c(=O)c(C)c32)c1` [trametinib]: the negative logarithm of the IC50 (pIC50) in the experiment with MM074 is 9.29; in the experiment on IGR37 [1] it was below 7.30; in the experiment on MM011, below 7.30; with 501mel, 8.52; with MM029, below 7.30; in the experiment on SKMEL-28 it was 8.29. Moreover, the negative logarithm of the IC50 (pIC50) with 501mel^VemuR is below 7.30; in the experiment on Hermes3A, below 7.30; in the experiment with MM074^VemuR, 8.33; with IGR37 [3], 9.28; in the experiment on MM117, 7.99; in the experiment with MM047, below 7.30. This molecule also gave a pIC50 with MM099 below 7.30.
As for `CCCS(=O)(=O)Nc1ccc(F)c(C(=O)c2c[nH]c3ncc(-c4ccc(Cl)cc4)cc23)c1F` [vemurafenib], the pIC50 in the experiment on MM074 was 6.65; with IGR37 [1], below 5.00; in the experiment with MM011, below 5.00; in the experiment with 501mel it was 5.61; in the experiment with MM029, below 5.00; in the experiment on SKMEL-28, below 5.00. In addition, the pIC50 in the experiment with 501mel^VemuR is below 5.00; with Hermes3A it was below 5.00; in the experiment on MM074^VemuR, below 5.00; in the experiment on IGR37 [3], 6.29; with MM117, 6.31; with MM047, below 5.00. This molecule showed a negative-log IC50 (pIC50) with MM099 below 5.00.
